Consider 1 molecule from patent publication US20030207813A1, “Retroviral protease inhibitor combinations” (priority 1995, published 2003).

Molecules are shown by their SMILES. Where only a bound is given, the exact number is not on record here.

For test [1], the system named is NL4(538/524). Briefly: Viral isolate resistance assay per Markowitz et al., NL4(538/524). The conditions noted are these: Human immunodeficiency virus 1; Table 10; NL4(P22-538) selected against Example 5, 24 passages. The format is cell-based, HIV-1. An excerpt: (§1) RF represents the HIV-1 strain HIV-LRF and RFR represents a mixture of resistant strains obtained by selection of RF against the compound of Example 1. RFR comprises a mixture of viral strains having protease genotypes of G48V (14/40 clones); G48V, V82A (18/40 clones); G48V, L90S (2/40 clones); G48V, 154T, V82A (1/40 clones); G48M (1/40 clones); G48V, Q61H (1/40 clones); V13I, G48V (1/40 clones); G48V, F53L, V82A (1/40 clones); and G48V, V82A, C95Y (1/40 clones). RFR2 represents a mixture of resistant strains obtained by cloning RFR by three rounds of growth at limiting dilution. RFR2 comprises a mixture of viral strains having protease genotypes of G48V, V82A (13/15 clones); G17E, G48V, V82A (1/15 clones); and G48V, V82A, N37D, N88D (1/15 clones). RFRR represents a mixture of resistant strains obtained by selection of RF against the compounds of Examples 1 and 2 and then cloning by three rounds of growth at limiting dilution. RFRR comprises a mixture of viral strains having protease genotypes of G48V, 154T, L63P, V82A (7/9 clones); G48V, 154T, L63P, V82A, N88S (1/9 clones); and G48V, 154T, L63P, G73M, V82A (1/9 clones). SF162 represents the HIV-1 strain SF-162 and SF162R represents a mixture of resistant strains obtained by selection of SF162 against the compound of Example 1. SF162R comprises a mixture of viral strains having protease genotypes of M461, F53L, L63P, A71V, N88D (2/3 clones); and M46I, F53L, L63P, A71V, N88D, Q92R (1/3 clones). 89-959 represents the HIV-1 strain 89-959 and 89-959R represents a mixture of resistant strains obtained by selection of 89-959 against the compound of Example 2. 89-959R comprises a mixture of viral strains having protease genotypes of N88S (4/5 clones); and D25N, T26A, D30N, D37N, R41K, G73D, R87K, N88S (1/4 clones). NL4 represents the HIV-1 strain HIV-1NL4-3. NL4(G48V) represents a strain having a synthetically generated site-directed mutation in the protease from glycine to valine at amino acid position number 48. NL4(I84V) represents a strain having a synthetically generated site-directed mutation in the protease from isoleucine to valine at amino acid position number 84. NL4(R8Q,M46I) represents a strain having synthetically generated site-directed mutations in the protease from arginine to glutamine at amino acid position number 8 and methionine to isoleucine at amino acid position number 46. NL4(P22-538) represents a mixture of resistant strains obtained by selection of HIV-1NL4-3 against the compound of Example 10 after 22 passages comprising protease genotypes M46I, L63P, A71V, V82F, I84V (4/10); M46I, L63P, V82F, I84V (3/10); and M46I, A71V, V82F, I84V (3/10). NL4(P37-538) represents resistant strains obtained by selection of HIV-1NL4-3 against the compound of Example 10 after 37 passages comprising protease genotype M46I, L63P, A71V, 184A. NL4(538/524) represents resistant strains obtained by selection of NL4(P22-538) against the compound of Example 5 after 24 passages comprising protease genotype M46I, L63P, A71V, 184A. NL4(538/P7-AG) represents a mixture of resistant strains obtained by selection of NL4(P22-538) against the compound of Example 12 after 7 passages comprising protease genotypes M46I, L63P, A71V, 184A; and V321, V82I. NL4(538/P24-AG) represents resistant strains obtained by selection of NL4(P22-538) against the compound of Example 12 after 24 passages comprising protease genotype M46I, L63P, A71V, 184A. […]

Test [2] deals with HIV-1NL4-3. As to the kind of experiment: microbe, parasite or virus in culture. The format is cell-based. The conditions noted are these: Human immunodeficiency virus 1, NL4. The source says:
(§2) RF represents the HIV-1 strain HIV-LRF and RFR represents a mixture of resistant strains obtained by selection of RF against the compound of Example 1. […] RFR2 represents a mixture of resistant strains obtained by cloning RFR by three rounds of growth at limiting dilution. […] RFRR represents a mixture of resistant strains obtained by selection of RF against the compounds of Examples 1 and 2 and then cloning by three rounds of growth at limiting dilution. […] SF162 represents the HIV-1 strain SF-162 and SF162R represents a mixture of resistant strains obtained by selection of SF162 against the compound of Example 1. […] 89-959 represents the HIV-1 strain 89-959 and 89-959R represents a mixture of resistant strains obtained by selection of 89-959 against the compound of Example 2. […] NL4 represents the HIV-1 strain HIV-1NL4-3. NL4(G48V) represents a strain having a synthetically generated site-directed mutation in the protease from glycine to valine at amino acid position number 48. NL4(I84V) represents a strain having a synthetically generated site-directed mutation in the protease from isoleucine to valine at amino acid position number 84. NL4(R8Q,M46I) represents a strain having synthetically generated site-directed mutations in the protease from arginine to glutamine at amino acid position number 8 and methionine to isoleucine at amino acid position number 46.

Test [3] relates to NL4(G48V). As to the kind of experiment: Viral isolate resistance assay per Markowitz et al., NL4(G48V). Particulars: Human immunodeficiency virus 1, Table 7. The format is cell-based, HIV-1.
Source text: as §2

Test [4] relates to NL4(R8Q,M46I). Briefly: Viral isolate resistance assay per Markowitz et al., NL4(R8Q,M46I). The format is cell-based, HIV-1. Particulars: Human immunodeficiency virus 1, read-out: Virus Isolate (EC50 nM) NL4(R8O, M46I). An excerpt:
RF represents the HIV-1 strain HIV-LRF and RFR represents a mixture of resistant strains obtained by selection of RF against the compound of Example 1. RFR comprises a mixture of viral strains having protease genotypes of G48V (14/40 clones); G48V, V82A (18/40 clones); G48V, L90S (2/40 clones); G48V, 154T, V82A (1/40 clones); G48M (1/40 clones); G48V, Q61H (1/40 clones); V13I, G48V (1/40 clones); G48V, F53L, V82A (1/40 clones); and G48V, V82A, C95Y (1/40 clones). RFR2 represents a mixture of resistant strains obtained by cloning RFR by three rounds of growth at limiting dilution. RFR2 comprises a mixture of viral strains having protease genotypes of G48V, V82A (13/15 clones); G17E, G48V, V82A (1/15 clones); and G48V, V82A, N37D, N88D (1/15 clones). RFRR represents a mixture of resistant strains obtained by selection of RF against the compounds of Examples 1 and 2 and then cloning by three rounds of growth at limiting dilution. RFRR comprises a mixture of viral strains having protease genotypes of G48V, 154T, L63P, V82A (7/9 clones); G48V, 154T, L63P, V82A, N88S (1/9 clones); and G48V, 154T, L63P, G73M, V82A (1/9 clones). SF162 represents the HIV-1 strain SF-162 and SF162R represents a mixture of resistant strains obtained by selection of SF162 against the compound of Example 1. SF162R comprises a mixture of viral strains having protease genotypes of M461, F53L, L63P, A71V, N88D (2/3 clones); and M46I, F53L, L63P, A71V, N88D, Q92R (1/3 clones). 89-959 represents the HIV-1 strain 89-959 and 89-959R represents a mixture of resistant strains obtained by selection of 89-959 against the compound of Example 2. 89-959R comprises a mixture of viral strains having protease genotypes of N88S (4/5 clones); and D25N, T26A, D30N, D37N, R41K, G73D, R87K, N88S (1/4 clones). NL4 represents the HIV-1 strain HIV-1NL4-3. NL4(G48V) represents a strain having a synthetically generated site-directed mutation in the protease from glycine to valine at amino acid position number 48. […]

In test [5] the test system is NL4(538/P24-AG). As to the kind of experiment: Viral isolate resistance assay per Markowitz et al., NL4(538/P24-AG). The conditions noted are these: Human immunodeficiency virus 1; Table 10; NL4(P22-538) selected against Example 12, 24 passages. The format is cell-based, HIV-1.
Source text: as §1

On to `Nc1cccc(CN2C(=O)N(Cc3cccc(N)c3)[C@H](Cc3ccccc3)[C@H](O)[C@@H](O)[C@H]2Cc2ccccc2)c1` [Example 13, [4R-(4α,5α,6β,7β)]-1,3-bis[(3-aminophenyl)methyl]hexahydro-5,6-dihydroxy-4,7-bis(phenylmethyl)-2H-1,3-diazepin-2-one], for which the EC50 in test [1] is over 31200 nM; in test [2] (Table 8, read-out: Virus Isolate (EC50 nM) NL4), 250 nM; in test [4] it was 750 nM; in test [5], over 31200 nM. Further, the 90% effect concentration (EC90) was found to be 250 nM in test [2] (Table 7, EC90, read-out: Virus Isolate (EC90 nM) NL4) and 1000 nM in test [3].
